Laboratory results published in US20140163082A1, “PYRAZOLYL COMPOUNDS FOR USE IN REVERSING REACTIVE GLIOSIS” (priority 2011, published 2014).

System: rMC-1 cells
Test: Real time RT-PCR analysis, in vitro, rMC-1
Type: cell-based
Method: A transformed Müller cell line [rMC-1] were grown in cell cultures in DMEM supplemented with 15% FBS, as well as with a fungicide mixture and 0.5% gentamicin in a humidified atmosphere of 5% CO2/95% air. Medium was changed every 2-3 days, and cells were grown to confluence in a 150-mm dish. Cells were split into 60-mm dishes and were used in the experiments when confluent. […] cells are immortalized rat retinal neurosensory/neuoroglial progenitor cells, by transfection with Adenovirus 12S E1A into the neonatal retinal tissue. […] cells express genes characteristic of neurons, as well as functional neuronal properties. […] cells were cultured in DMEM/F12 medium in a 1:1 mixture, supplemented with 5% FBS, 1.5 mM L-glutamine, 7.5 mM sodium pyruvate, 0.1 mM nonessential amino acids, 1×MEM, 0.37% sodium bicarbonate and 10 μg/ml gentamicin. Cells were incubated at 37° C. in the presence of 5% CO2. Human retinal microvascular endothelial cells [[…]][40,000 cells/well] were seeded in a 96-well plate and allowed to adhere overnight and incubated at 37° C. in normoxia. Cells were then cultured in 150 μl of CS-C medium supplemented with 10% FBS and in the presence of 1-100 μM YC-1 or DMSO [0.2%]. Cells were placed in airtight chambers [BioSpherix, Redfield, N.Y.] and the O2 tension was maintained at 1.2% by using Pro-Ox Model 110 O2 regulator [BioSpherix, Redfield, N.Y.]. The chamber was purged with a gas mixture of 5.32% CO2, and 93.48% N2. […] We used the primers summarized in [FIG. 6C] for RT-PCR. Gene-specific molecular beacons and primers were designed to encompass the genes of interest, with beacon's annealing site to overlap with the exon-exon junctions for additional specificity [Beacon Designer 6.0, Premier Biosoft International, Palo Alto, Calif., USA]. Threshold cycle [Ct] values for the different samples were utilized for the calculation of gene expression fold change using the formula 2 to the minus power of delta delta ct. Fold changes in the HIF-1, VEGF, PDGF-B, GFAP and iNOS gene relative to the β-actin endogenous control gene were determined by the following equation: fold change=2-Δ[ΔC T], where change in threshold cycle [ΔCT]=CT [gene of interest]-CT [β-actin] and Δ [ΔCT]=ΔCT [treated]-ΔCT [untreated].

[1] = rMC-1, hypoxia 48 hours, YC-1 25-100 μM, vs DMSO-treated hypoxic cells

In the case of OCc1ccc(-c2nn(Cc3ccccc3)c3ccccc23)o1 [YC-1, 3-(5′-hydroxymethyl-2′-furyl)-1-benzylindazole], the “PDGF-B mRNA level” value [1] is reported as “significant dose-dependent attenuations”, the “VEGF mRNA level” value [1] is reported as “significant dose-dependent attenuations” and the “iNOS mRNA level” value [1] is reported as “significant dose-dependent attenuations”. For the same molecule, the “GFAP mRNA level” value (rMC-1, hypoxia, YC-1 25-100 μM, vs DMSO-treated hypoxic cells, normalized to β-actin) was “significant dose-dependent attenuations” and the HIF-1α message level (rMC-1, pre- vs post-YC-1 treatment) was “no differences”.
